Measurements from ChEMBL document CHEMBL1687887, “Evolution of potent and stable placental-growth-factor-1-targeting CovX-bodies from phage display peptide discovery” (J Med Chem, 2011).
Bridge positions count the residues as written; N and C are the ends. Peptide text beside a SMILES is read from it. * marks the point of attachment. X1 = O=C(COCC(=O)*)Nc1ccc(CCC(=O)N2CCC2=O)cc1

How the values were obtained:
Placenta growth factor [1] = target: T1, Placenta growth factor (Mus musculus, UniProt P49764); assay: Inhibition of mouse PlGF-VEGFR-1 interaction by ELISA
T1 sequence (P49764 whole entry): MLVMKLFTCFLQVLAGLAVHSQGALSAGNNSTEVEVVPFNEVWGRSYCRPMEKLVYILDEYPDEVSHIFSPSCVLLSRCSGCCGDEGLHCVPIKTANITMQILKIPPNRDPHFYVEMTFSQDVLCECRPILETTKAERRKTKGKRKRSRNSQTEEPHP

Placenta growth factor [2] = target: T2, Placenta growth factor (Homo sapiens, UniProt P49763); assay: Binding affinity to human PlGF-1; settings: read-out: Kd
T2 sequence (P49763 whole entry): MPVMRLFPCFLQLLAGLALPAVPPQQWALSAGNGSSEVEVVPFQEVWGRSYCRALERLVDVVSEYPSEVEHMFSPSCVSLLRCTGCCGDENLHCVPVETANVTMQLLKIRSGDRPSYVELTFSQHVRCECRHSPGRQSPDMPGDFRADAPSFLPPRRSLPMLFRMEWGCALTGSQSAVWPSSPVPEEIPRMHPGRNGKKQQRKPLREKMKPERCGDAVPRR

Placenta growth factor [3] = target: T2, Placenta growth factor; assay: Inhibition of human PlGF-1-VEGFR-1 interaction by ELISA
[4] = Stability in Swiss Webster mouse serum assessed as functional compound remaining after 6 hrs; format: ADME, cell-free; settings: read-out: Stability

Row | IC50 (Placenta growth factor [1]) [µM] | Kd (Placenta growth factor [2]) [µM] | IC50 (Placenta growth factor [3]) [µM] | remaining at 6 h [4] [%] | SMILES
1 | > 1 | > 1 |  |  | CSCC[C@H](NC(=O)[C@@H](NC(=O)[C@H](CCCCNC(C)=O)NC(=O)[C@@H]1CSSC[C@H](NC(=O)[C@H](CCCCNC(=O)COCC(=O)Nc2ccc(CCC(=O)N3CCC3=O)cc2)NC(=O)[C@H](CC(=O)O)NC(=O)[C@H](Cc2ccccc2)NC(C)=O)C(=O)N[C@@H](CC(N)=O)C(=O)N[C@@H](Cc2c[nH]c3ccccc23)C(=O)N[C@@H](C(C)C)C(=O)N[C@@H]([C@@H](C)O)C(=O)N[C@@H](CC(C)C)C(=O)N2CCC[C@H]2C(=O)N[C@@H](Cc2cnc[nH]2)C(=O)N1)C(C)C)C(N)=O (Ac-FDK(X1)CNWVTLPHCK(Ac)VM-NH2; disulfide 4-12)
2 | 0.4 |  |  |  | CC[C@H](C)[C@@H]1NC(=O)[C@H](Cc2ccc(O)cc2)NC(=O)[C@H](Cc2cnc[nH]2)NC(=O)[C@@H](NC(=O)[C@@H](NC(=O)[C@H](CCC(=O)O)NC(=O)[C@H](Cc2ccccc2)NC(C)=O)C(C)C)CSSC[C@@H](C(=O)N[C@H](C(=O)N[C@@H](CCCN=C(N)N)C(=O)N[C@@H](Cc2ccc(O)cc2)C(N)=O)[C@@H](C)O)NC(=O)[C@H](Cc2cnc[nH]2)NC(=O)[C@@H]2CCCN2C(=O)[C@H](CC(C)C)NC(=O)[C@H](CCCN=C(N)N)NC1=O (Ac-FEVCHYIRLPHCTRY-NH2; disulfide 4-12)
3 |  | 1 | 1 |  | CSCC[C@H](NC(=O)[C@@H](NC(=O)[C@H](CCCCN)NC(=O)[C@@H]1CSSC[C@H](NC(=O)[C@@H](NC(=O)[C@H](CC(=O)O)NC(=O)[C@H](Cc2ccccc2)NC(C)=O)C(C)C)C(=O)N[C@@H](CCCCN)C(=O)N[C@@H](Cc2c[nH]c3ccccc23)C(=O)N[C@@H](C(C)C)C(=O)N[C@@H]([C@@H](C)O)C(=O)N[C@@H](CC(C)C)C(=O)N2CCC[C@H]2C(=O)N[C@@H](Cc2cnc[nH]2)C(=O)N1)C(C)C)C(N)=O (Ac-FDVCKWVTLPHCKVM-NH2; disulfide 4-12)
4 | > 1 | > 1 |  |  | CSCC[C@H](NC(=O)[C@@H](NC(=O)[C@H](CCCCNC(C)=O)NC(=O)[C@@H]1CSSC[C@H](NC(=O)[C@@H](NC(=O)[C@H](CC(=O)O)NC(=O)[C@H](Cc2ccccc2)NC(C)=O)C(C)C)C(=O)N[C@@H](CC(N)=O)C(=O)N[C@@H](Cc2c[nH]c3ccccc23)C(=O)N[C@@H](CCCCNC(=O)COCC(=O)Nc2ccc(CCC(=O)N3CCC3=O)cc2)C(=O)N[C@@H]([C@@H](C)O)C(=O)N[C@@H](CC(C)C)C(=O)N2CCC[C@H]2C(=O)N[C@@H](Cc2cnc[nH]2)C(=O)N1)C(C)C)C(N)=O (Ac-FDVCNWK(X1)TLPHCK(Ac)VM-NH2; disulfide 4-12)
5 | > 1 | > 1 |  |  | CSCC[C@H](NC(=O)[C@@H](NC(=O)[C@H](CCCCNC(C)=O)NC(=O)[C@@H]1CSSC[C@H](NC(=O)[C@@H](NC(=O)[C@H](CC(=O)O)NC(=O)[C@H](Cc2ccccc2)NC(C)=O)C(C)C)C(=O)N[C@@H](CC(N)=O)C(=O)N[C@@H](CCCCNC(=O)COCC(=O)Nc2ccc(CCC(=O)N3CCC3=O)cc2)C(=O)N[C@@H](C(C)C)C(=O)N[C@@H]([C@@H](C)O)C(=O)N[C@@H](CC(C)C)C(=O)N2CCC[C@H]2C(=O)N[C@@H](Cc2cnc[nH]2)C(=O)N1)C(C)C)C(N)=O (Ac-FDVCNK(X1)VTLPHCK(Ac)VM-NH2; disulfide 4-12)
6 | > 1 | > 1 |  |  | CSCC[C@H](NC(=O)[C@@H](NC(=O)[C@H](CCCCNC(C)=O)NC(=O)[C@@H]1CSSC[C@H](NC(=O)[C@@H](NC(=O)[C@H](CC(=O)O)NC(=O)[C@H](Cc2ccccc2)NC(C)=O)C(C)C)C(=O)N[C@@H](CC(N)=O)C(=O)N[C@@H](Cc2c[nH]c3ccccc23)C(=O)N[C@@H](C(C)C)C(=O)N[C@@H]([C@@H](C)O)C(=O)N[C@@H](CC(C)C)C(=O)N[C@@H](CCCCNC(=O)COCC(=O)Nc2ccc(CCC(=O)N3CCC3=O)cc2)C(=O)N[C@@H](Cc2cnc[nH]2)C(=O)N1)C(C)C)C(N)=O (Ac-FDVCNWVTLK(X1)HCK(Ac)VM-NH2; disulfide 4-12)
7 | 0.004 | 0.009 |  | 20 | CSCC[C@H](NC(=O)[C@@H](NC(=O)[C@H](CCCCNC(C)=O)NC(=O)[C@@H]1CSSC[C@H](NC(=O)[C@@H](NC(=O)[C@H](CC(=O)O)NC(=O)[C@H](Cc2ccccc2)NC(C)=O)C(C)C)C(=O)N[C@@H](CC(N)=O)C(=O)N[C@@H](Cc2c[nH]c3ccccc23)C(=O)N[C@@H](C(C)C)C(=O)N[C@@H](CCCCNC(=O)COCC(=O)Nc2ccc(CCC(=O)N3CCC3=O)cc2)C(=O)N[C@@H](CC(C)C)C(=O)N2CCC[C@H]2C(=O)N[C@@H](Cc2cnc[nH]2)C(=O)N1)C(C)C)C(N)=O (Ac-FDVCNWVK(X1)LPHCK(Ac)VM-NH2; disulfide 4-12)
8 | 0.054 | 0.004 |  | 11 | CSCC[C@H](NC(=O)[C@@H](NC(=O)[C@H](CCCCNC(=O)COCC(=O)Nc1ccc(CCC(=O)N2CCC2=O)cc1)NC(=O)[C@@H]1CSSC[C@H](NC(=O)[C@@H](NC(=O)[C@H](CC(=O)O)NC(=O)[C@H](Cc2ccccc2)NC(C)=O)C(C)C)C(=O)N[C@@H](CC(N)=O)C(=O)N[C@@H](Cc2c[nH]c3ccccc23)C(=O)N[C@@H](C(C)C)C(=O)N[C@@H]([C@@H](C)O)C(=O)N[C@@H](CC(C)C)C(=O)N2CCC[C@H]2C(=O)N[C@@H](Cc2cnc[nH]2)C(=O)N1)C(C)C)C(N)=O (Ac-FDVCNWVTLPHCK(X1)VM-NH2; disulfide 4-12)
9 | > 1 | > 1 |  |  | CSCC[C@H](NC(=O)[C@@H](NC(=O)[C@H](CCCCNC(C)=O)NC(=O)[C@@H]1CSSC[C@H](NC(=O)[C@@H](NC(=O)[C@H](CC(=O)O)NC(=O)[C@H](Cc2ccccc2)NC(C)=O)C(C)C)C(=O)N[C@@H](CC(N)=O)C(=O)N[C@@H](Cc2c[nH]c3ccccc23)C(=O)N[C@@H](C(C)C)C(=O)N[C@@H]([C@@H](C)O)C(=O)N[C@@H](CC(C)C)C(=O)N2CCC[C@H]2C(=O)N[C@@H](CCCCNC(=O)COCC(=O)Nc2ccc(CCC(=O)N3CCC3=O)cc2)C(=O)N1)C(C)C)C(N)=O (Ac-FDVCNWVTLPK(X1)CK(Ac)VM-NH2; disulfide 4-12)
10 | 0.0002 |  |  | 23 | CC[C@H](C)[C@@H]1NC(=O)[C@H](Cc2ccc(O)cc2)NC(=O)[C@H](Cc2cnc[nH]2)NC(=O)[C@@H](NC(=O)[C@@H](NC(=O)[C@H](CCC(=O)O)NC(=O)[C@H](Cc2ccccc2)NC(C)=O)C(C)C)CSSC[C@@H](C(=O)N[C@@H](C(=O)N[C@H](CCCN=C(N)N)C(=O)N[C@H](Cc2ccc(O)cc2)C(N)=O)[C@@H](C)O)NC(=O)[C@H](Cc2cnc[nH]2)NC(=O)[C@@H]2CCCN2C(=O)[C@H](CC(C)C)NC(=O)[C@H](CCCCNC(=O)COCC(=O)Nc2ccc(CCC(=O)N3CCC3=O)cc2)NC1=O
11 | > 1 | > 1 |  |  | CSCC[C@H](NC(=O)[C@@H](NC(=O)[C@H](CCCCNC(C)=O)NC(=O)[C@@H]1CSSC[C@H](NC(=O)[C@@H](NC(=O)[C@H](CC(=O)O)NC(=O)[C@H](Cc2ccccc2)NC(C)=O)C(C)C)C(=O)N[C@@H](CC(N)=O)C(=O)N[C@@H](Cc2c[nH]c3ccccc23)C(=O)N[C@@H](C(C)C)C(=O)N[C@@H]([C@@H](C)O)C(=O)N[C@@H](CCCCNC(=O)COCC(=O)Nc2ccc(CCC(=O)N3CCC3=O)cc2)C(=O)N2CCC[C@H]2C(=O)N[C@@H](Cc2cnc[nH]2)C(=O)N1)C(C)C)C(N)=O (Ac-FDVCNWVTK(X1)PHCK(Ac)VM-NH2; disulfide 4-12)
12 |  | 0.2 | 1 |  | CSCC[C@H](NC(=O)[C@@H](NC(=O)[C@H](CCCCN)NC(=O)[C@@H]1CSSC[C@H](NC(=O)[C@@H](NC(=O)[C@H](CC(=O)O)NC(=O)[C@H](Cc2ccccc2)NC(=O)COCC(=O)Nc2ccc(CCC(=O)N3CCC3=O)cc2)C(C)C)C(=O)N[C@@H](CCCCN)C(=O)N[C@@H](Cc2c[nH]c3ccccc23)C(=O)N[C@@H](C(C)C)C(=O)N[C@@H]([C@@H](C)O)C(=O)N[C@@H](CC(C)C)C(=O)N2CCC[C@H]2C(=O)N[C@@H](Cc2cnc[nH]2)C(=O)N1)C(C)C)C(N)=O (X1-FDVCKWVTLPHCKVM-NH2; disulfide 4-12)
13 | 0.624 | 0.006 |  |  | CSCC[C@H](NC(=O)[C@@H](NC(=O)[C@H](CCCCNC(C)=O)NC(=O)[C@@H]1CSSC[C@H](NC(=O)[C@@H](NC(=O)[C@H](CC(=O)O)NC(=O)[C@H](Cc2ccccc2)NC(C)=O)C(C)C)C(=O)N[C@@H](CCCCNC(=O)COCC(=O)Nc2ccc(CCC(=O)N3CCC3=O)cc2)C(=O)N[C@@H](Cc2c[nH]c3ccccc23)C(=O)N[C@@H](C(C)C)C(=O)N[C@@H]([C@@H](C)O)C(=O)N[C@@H](CC(C)C)C(=O)N2CCC[C@H]2C(=O)N[C@@H](Cc2cnc[nH]2)C(=O)N1)C(C)C)C(N)=O (Ac-FDVCK(X1)WVTLPHCK(Ac)VM-NH2; disulfide 4-12)
14 |  |  | 19 |  | CSCC[C@H](NC(=O)[C@H](Cc1ccccc1)NC(C)=O)C(=O)N[C@H](C(=O)N[C@H]1CSSC[C@@H](C(=O)N2CCC[C@H]2C(=O)N[C@@H](CCSC)C(=O)N[C@@H](CCC(N)=O)C(N)=O)NC(=O)[C@H](Cc2c[nH]c3ccccc23)NC(=O)[C@@H]2CCCN2C(=O)[C@H](CC(C)C)NC(=O)[C@H]([C@@H](C)O)NC(=O)[C@H](C(C)C)NC(=O)[C@H](Cc2ccc(O)cc2)NC(=O)[C@H](CC(N)=O)NC1=O)C(C)C (Ac-FMVCNYVTLPWCPMQ-NH2; disulfide 4-12)
15 |  |  | 6 |  | CSCC[C@H](NC(=O)[C@@H](NC(=O)[C@H](CCCCN)NC(=O)[C@@H]1CSSC[C@H](NC(=O)[C@@H](NC(=O)[C@H](CC(=O)O)NC(=O)[C@H](Cc2ccccc2)NC(C)=O)C(C)C)C(=O)N[C@@H](CCCCN)C(=O)N[C@@H](Cc2c[nH]c3ccccc23)C(=O)N[C@@H](C(C)C)C(=O)NCC(=O)N[C@@H](CC(C)C)C(=O)N2CCC[C@H]2C(=O)N[C@@H](Cc2cnc[nH]2)C(=O)N1)C(C)C)C(N)=O (Ac-FDVCKWVGLPHCKVM-NH2; disulfide 4-12)
